Data from patent publication US11541107B2, “Peptides and T cells for use in immunotherapeutic treatment of various cancers” (Immatics Biotechnologies GmbH, priority 2015, dated 2023).

These substances were tested on HLA-A*24 (assay: MHC binding assay, UV-ligand exchange with beta2m ELISA, HLA-A*24). Conditions: binding to HLA-A*24 ranged by peptide exchange yield (UV-ligand exchange, beta2m ELISA).
Design: species or system human
Description: Candidate peptides for T cell based therapies according to the present invention were further tested for their MHC binding capacity (affinity). The individual peptide-MHC complexes were produced by UV-ligand exchange, where a UV-sensitive peptide is cleaved upon UV-irradiation, and exchanged with the peptide of interest as analyzed. Only peptide candidates that can effectively bind and stabilize the peptide-receptive MHC molecules prevent dissociation of the MHC complexes. To determine the yield of the exchange reaction, an ELISA was performed based on the detection of the light chain (ß2 m) of stabilized MHC complexes. The assay was performed as generally described in Rodenko et al. (Rodenko et al., 2006).
96 well MAXISorp plates (NUNC) were coated over night with 2 ug/ml streptavidin in PBS at room temperature, washed 4× and blocked for 1 h at 37° C. in 2% BSA containing blocking buffer. […] Peptide-MHC monomers of the UV-exchange reaction were diluted 100 fold in blocking buffer. Samples were incubated for 1 h at 37° C., washed four times, incubated with 2 ug/ml HRP conjugated anti-β2 m for 1h at 37° C., washed again and detected with TMB solution that is stopped with […]. Absorption was measured at 450 nm. Candidate peptides that show a high exchange yield (preferably higher than 50%, most preferred higher than 75%) are generally preferred for a generation and production of antibodies or fragments thereof, and/or T cell receptors or fragments thereof, as they show sufficient avidity to the MHC molecules and prevent dissociation of the MHC complexes.

| Peptide exchange | Substance |
| --- | --- |
| ++++ (>=75% = ++++) | 153 (VYVPFGGKSMITF; listed as Homo sapiens) [compound 153] |
| ++++ (>=75% = ++++) | 154 (VYGVPTPHF; listed as Homo sapiens) [compound 154] |
| ++++ (>=75% = ++++) | 155 (IYKWITDNF; listed as Homo sapiens) [compound 155] |
| +++ (50%-75% = +++) | 159 (IYEETRGVL; listed as Homo sapiens) [compound 159] |
| +++ (50%-75% = +++) | 165 (EYFTPLLSGQF; listed as Homo sapiens) [compound 165] |
| +++ (50%-75% = +++) | 168 (RYLEAALRL; listed as Homo sapiens) [compound 168] |
| +++ (50%-75% = +++) | 169 (NYITGKGDVF; listed as Homo sapiens) [compound 169] |
| ++++ (>=75% = ++++) | 170 (QYPFHVPLL; listed as Homo sapiens) [compound 170] |
| +++ (50%-75% = +++) | 171 (NYEDHFPLL; listed as Homo sapiens) [compound 171] |
| ++++ (>=75% = ++++) | 173 (QYLEKYYNL; listed as Homo sapiens) [compound 173] |
| +++ (50%-75% = +++) | 176 (FYINGQYQF; listed as Homo sapiens) [compound 176] |
| +++ (50%-75% = +++) | 178 (NYSSAVQKF; listed as Homo sapiens) [compound 178] |
| +++ (50%-75% = +++) | 179 (TYIPVGLGRLL; listed as Homo sapiens) [compound 179] |
| ++++ (>=75% = ++++) | 182 (AYAQLGYLLF; listed as Homo sapiens) [compound 182] |
| +++ (50%-75% = +++) | 183 (PYLQDVPRI; listed as Homo sapiens) [compound 183] |
| ++++ (>=75% = ++++) | 184 (IYSVGAFENF; listed as Homo sapiens) [compound 184] |

| Peptide exchange | Substance |
| --- | --- |
| ++++ (>=75% = ++++) | 185 (QYLVHVNDL; listed as Homo sapiens) [compound 185] |
| ++++ (>=75% = ++++) | 187 (AYAANVHYL; listed as Homo sapiens) [compound 187] |
| +++ (50%-75% = +++) | 188 (GYKTFFNEF; listed as Homo sapiens) [compound 188] |
| +++ (50%-75% = +++) | 191 (TYPDGTYTGRIF; listed as Homo sapiens) [compound 191] |
| +++ (50%-75% = +++) | 192 (RYSTFSEIF; listed as Homo sapiens) [compound 192] |
| +++ (50%-75% = +++) | 193 (LYLENNAQTQF; listed as Homo sapiens) [compound 193] |
| +++ (50%-75% = +++) | 194 (VYQSLSNSL; listed as Homo sapiens) [compound 194] |
| +++ (50%-75% = +++) | 195 (AYIKGGWIL; listed as Homo sapiens) [compound 195] |
| ++++ (>=75% = ++++) | 196 (GYIRGSWQF; listed as Homo sapiens) [compound 196] |
| ++++ (>=75% = ++++) | 197 (IFTDIFHYL; listed as Homo sapiens) [compound 197] |
| ++ (20%-49% = ++) | 198 (DYVGFTLKI; listed as Homo sapiens) [compound 198] |
| +++ (50%-75% = +++) | 199 (SYLNHLNNL; listed as Homo sapiens) [compound 199] |
| +++ (50%-75% = +++) | 200 (VFIHHLPQF; listed as Homo sapiens) [compound 200] |
| +++ (50%-75% = +++) | 201 (GYNPNRVFF; listed as Homo sapiens) [compound 201] |
| +++ (50%-75% = +++) | 202 (RYVEGIVSL; listed as Homo sapiens) [compound 202] |
| +++ (50%-75% = +++) | 204 (EYLSTCSKL; listed as Homo sapiens) [compound 204] |

Second part, the substance before the results:

| Substance | Peptide exchange |
| --- | --- |
| 97 (TYTFLKETF; listed as Homo sapiens) [compound 97] | ++++ (>=75% = ++++) |
| 99 (QYILAVPVL; listed as Homo sapiens) [compound 99] | ++++ (>=75% = ++++) |
| 100 (VYIESRIGTSTSF; listed as Homo sapiens) [compound 100] | +++ (50%-75% = +++) |
| 102 (VYPFENFEF; listed as Homo sapiens) [compound 102] | +++ (50%-75% = +++) |
| 107 (KYFPYLVVI; listed as Homo sapiens) [compound 107] | +++ (50%-75% = +++) |
| 108 (PYLVVIHTL; listed as Homo sapiens) [compound 108] | +++ (50%-75% = +++) |
| 109 (LFITGGQFF; listed as Homo sapiens) [compound 109] | ++++ (>=75% = ++++) |
| 110 (SYPKIIEEF; listed as Homo sapiens) [compound 110] | +++ (50%-75% = +++) |
| 112 (IYNFVESKL; listed as Homo sapiens) [compound 112] | +++ (50%-75% = +++) |
| 113 (IYSFHTLSF; listed as Homo sapiens) [compound 113] | +++ (50%-75% = +++) |
| 114 (QYLDGTWSL; listed as Homo sapiens) [compound 114] | ++++ (>=75% = ++++) |
| 116 (AYVIAVHLF; listed as Homo sapiens) [compound 116] | ++++ (>=75% = ++++) |
| 117 (IYLSDLTYI; listed as Homo sapiens) [compound 117] | +++ (50%-75% = +++) |
| 118 (KYLNSVQYI; listed as Homo sapiens) [compound 118] | +++ (50%-75% = +++) |
| 119 (VYRVYVTTF; listed as Homo sapiens) [compound 119] | +++ (50%-75% = +++) |
| 120 (GYIEHFSLW; listed as Homo sapiens) [compound 120] | ++++ (>=75% = ++++) |
| 121 (RYGLPAAWSTF; listed as Homo sapiens) [compound 121] | +++ (50%-75% = +++) |
| 122 (EYQARIPEF; listed as Homo sapiens) [compound 122] | +++ (50%-75% = +++) |
| 123 (VYTPVLEHL; listed as Homo sapiens) [compound 123] | ++ (20%-49% = ++) |
| 124 (TYKDYVDLF; listed as Homo sapiens) [compound 124] | + (<20% = +) |
| 125 (VFSRDFGLLVF; listed as Homo sapiens) [compound 125] | +++ (50%-75% = +++) |

| Substance | Peptide exchange |
| --- | --- |
| 127 (QYFTGNPLF; listed as Homo sapiens) [compound 127] | +++ (50%-75% = +++) |
| 128 (VYPFDWQYI; listed as Homo sapiens) [compound 128] | ++++ (>=75% = ++++) |
| 129 (KYIDYLMTW; listed as Homo sapiens) [compound 129] | ++++ (>=75% = ++++) |
| 131 (EYLDRIGQLFF; listed as Homo sapiens) [compound 131] | +++ (50%-75% = +++) |
| 133 (KYLEDMKTYF; listed as Homo sapiens) [compound 133] | +++ (50%-75% = +++) |
| 134 (AYIPTPIYF; listed as Homo sapiens) [compound 134] | +++ (50%-75% = +++) |
| 135 (VYEAMVPLF; listed as Homo sapiens) [compound 135] | ++++ (>=75% = ++++) |
| 136 (IYPEWPVVFF; listed as Homo sapiens) [compound 136] | +++ (50%-75% = +++) |
| 138 (VYNAVSTSF; listed as Homo sapiens) [compound 138] | ++ (20%-49% = ++) |
| 139 (IFGIFPNQF; listed as Homo sapiens) [compound 139] | +++ (50%-75% = +++) |
| 140 (RYLINSYDF; listed as Homo sapiens) [compound 140] | ++++ (>=75% = ++++) |
| 141 (SYNGHLTIWF; listed as Homo sapiens) [compound 141] | +++ (50%-75% = +++) |
| 143 (KYIFQLNEI; listed as Homo sapiens) [compound 143] | +++ (50%-75% = +++) |
| 144 (VFASLPGFLF; listed as Homo sapiens) [compound 144] | ++++ (>=75% = ++++) |
| 145 (VYALKVRTI; listed as Homo sapiens) [compound 145] | +++ (50%-75% = +++) |
| 146 (NYYERIHAL; listed as Homo sapiens) [compound 146] | +++ (50%-75% = +++) |
| 147 (LYLAFPLAF; listed as Homo sapiens) [compound 147] | +++ (50%-75% = +++) |
| 148 (SYGTVSQIF; listed as Homo sapiens) [compound 148] | ++++ (>=75% = ++++) |
| 149 (SYGTVSQI; listed as Homo sapiens) [compound 149] | ++++ (>=75% = ++++) |
| 152 (KFFDDLGDELLF; listed as Homo sapiens) [compound 152] | ++ (20%-49% = ++) |
